Measurements as given in patent US12691107B2, “Methods for the treatment and prevention of lung infections caused by gram-positive bacteria, fungus, or virus by administration of tafenoquine” (priority 2020, dated 2026).
Values after ≈ are worked out from the molar mass of the structure shown. Like-named read-outs stand apart in the source and are kept apart here.

Columns and labels:
[1] = tested on: A. baumannii; assay: Antibacterial MIC (broth microdilution); assay type: cell-based; settings: Acinetobacter baumannii
[2] = tested on: K. pneumoniae; assay: Antibacterial MIC (broth microdilution); assay type: cell-based; settings: Klebsiella pneumoniae
[3] = tested on: P. aeruginosa; assay: Antibacterial MIC (broth microdilution); assay type: cell-based; settings: Pseudomonas aeruginosa
[4] = tested on: E. coli; assay: Antibacterial MIC (broth microdilution); assay type: cell-based
Description: Growth Medium—Cation adjusted Mueller-Hinton broth was used as the test medium. Broth for panel preparation was prepared from commercial dehydrated medium (Difco formulation, BD Diagnostics, catalog number 275730).
Dilution of Investigational Agents—Polystyrene test tubes were used to prepare the drug dilutions and sterile U-shaped 96-well polystyrene microtiter trays were used for performing the MIC assays. Stock solutions of the investigational agents were prepared at concentrations 100-times the highest concentration to be tested (6400-1.25 μg/ml) using dimethyl sulfoxide. Aliquots of the stock solutions were dispensed into polypropylene vials and stored at −20° C. Further dilutions (1:50) were made in the culture medium (cation-adjusted Mueller-Hinton medium).
After the dilutions of the working 2-fold investigational antibacterial solutions were prepared, 50 μL of each concentration was transferred into rows of the first 10 wells of each 12-well column of the U-shaped disposable 96-well microtiter trays using a multichannel pipettor. The 11th well in each row served as the sterility control, and the 12th well contained only culture medium to serve as the growth control for each isolate. In like manner, the control drug for the organism being tested was prepared in a separate 96 well panel exactly as described above. A 50 μL volume of the standardized inoculum suspension of each test isolate was prepared in culture medium to directly inoculate each test well of the drug containing microtiter tray.
Inoculum Preparation—Colonies of each strain generated on sheep blood agar plates with overnight growth at 35° C. in ambient air were used to directly prepare a suspension equivalent in density to the 0.5 McFarland opacity standard. The exact turbidity of each suspension was determined using a desktop portable photometer. For panels containing 2× drug concentrations, a 1:100 dilution of the McFarland organism suspension was prepared in cation-adjusted Mueller-Hinton broth and 50 μL aliquots of each test (and control) strain was added to each well of the designated rows of the microtiter trays using a multichannel pipettor. The target inoculum concentration was 5×10^5 CFU/ml in each well.
Trays were removed and each well were inspected for evidence of growth (turbidity). The MIC was defined as the lowest concentration of the investigational agent and the control drug that prevents visibly discernible growth in the test wells.

[5] = tested on: Exserohilum sp.; assay: Antifungal MIC (RPMI-1640 microdilution); assay type: cell-based; settings: read-out: MIC 100% inhibition
[6] = tested on: Aspergillus flavus; assay: Antifungal MIC (RPMI-1640 microdilution); assay type: cell-based
[7] = tested on: Curvularia sp.; assay: Antifungal MIC (RPMI-1640 microdilution); assay type: cell-based; settings: read-out: MIC 100% inhibition
[8] = tested on: Aspergillus fumigatus; assay: Antifungal MIC (RPMI-1640 microdilution); assay type: cell-based
[9] = tested on: Altenaria sp.; assay: Antifungal MIC (RPMI-1640 microdilution); assay type: cell-based; settings: read-out: MIC 100% inhibition
[10] = tested on: Fusarium sp.; assay: Antifungal MIC (RPMI-1640 microdilution); assay type: cell-based
[11] = tested on: P. variotii; assay: Antifungal MIC (RPMI-1640 microdilution); assay type: cell-based; settings: Paecilomyces variotii, read-out: MIC 100% inhibition
[12] = tested on: M. tuberculosis [ATCC #27294]; assay: MIC against M. tuberculosis in 7H9 media; assay type: cell-based; settings: Mycobacterium tuberculosis, read-out: MIC
[13] = tested on: SARS-CoV-2; settings: cited from earlier work

With C[C@@H](O)[C@H]1C(=O)N2C(C(=O)O)=C(S[C@@H]3CN[C@H](C(=O)N(C)C)C3)[C@H](C)[C@H]12 [Meropenem] the MIC ([1]; ATCC17978, isolate ATCC 17978) was ≤ 0.125 mg/L, the MIC ([1]; isolate AR-88) was > 64 mg/L and the MIC ([1]; isolate AR-273) was 64 mg/L (≈ 167 µM). The MIC ([2]; ATCC70063, isolate ATCC 70063) was ≤ 0.125 mg/L, the MIC ([2]; isolate AR-97) was 64 mg/L (≈ 167 µM) and the MIC ([2]; isolate AR-113) was > 64 mg/L. The MIC ([3]; ATCC27853, isolate ATCC 27853) was 0.25 mg/L (≈ 0.652 µM), the MIC ([3]; isolate AR-230) was > 64 mg/L and the MIC ([3]; isolate J4242) was 8 mg/L (≈ 20.9 µM). The MIC ([4]; Escherichia coli, ATCC25922, isolate ATCC 25922, read-out: MIC) was ≤ 0.125 mg/L, the MIC ([4]; Escherichia coli, isolate J4243 (MO72), read-out: MIC) was ≤ 0.125 mg/L and the MIC ([4]; isolate J4244 (JJ1886)) was ≤0.125 mg/L.
For C[C@@H](c1ncncc1F)[C@](O)(Cn1cncn1)c1ccc(F)cc1F [Voriconazole], the MIC [5] was 0.5 mg/L (≈ 1.43 µM), the MIC ([6]; ATCC204304, read-out: MIC 100% inhibition, isolate ATCC 204304) was 1 mg/L (≈ 2.86 µM) and the MIC ([6]; read-out: MIC 100% inhibition, isolate Aflav2) was 2 mg/L (≈ 5.73 µM). For the same molecule, the MIC ([6]; read-out: MIC 100% inhibition, isolate Aflav3) was 1 mg/L (≈ 2.86 µM), the MIC [7] was 0.5 mg/L (≈ 1.43 µM) and the MIC ([8]; read-out: MIC 100% inhibition, isolate AF293) was 1 mg/L (≈ 2.86 µM). For the same molecule, the MIC ([8]; read-out: MIC 100% inhibition, isolate D115-106) was > 16 mg/L, the MIC ([8]; read-out: MIC 100% inhibition, isolate D115-116) was 8 mg/L (≈ 22.9 µM) and the MIC [9] was 2 mg/L (≈ 5.73 µM). The MIC ([10]; read-out: MIC 100% inhibition, isolate FO1) was 4 mg/L (≈ 11.5 µM), the MIC ([10]; read-out: MIC 100% inhibition, isolate FS2) was > 16 mg/L and the MIC ([10]; read-out: MIC 100% inhibition, isolate FSI) was 8 mg/L (≈ 22.9 µM). It also gave an MIC [11] of 0.125 mg/L (≈ 0.358 µM).
In the case of NNC(=O)c1ccncc1 [Isoniazid], the MIC ([12]; ATCC27294, 168 h, 7H9 with BSA, DPPC and cholesterol, 1 week) is reported as 0.2 µM (≈ 0.0274 µg/mL), the MIC ([12]; ATCC27294, 168 h, 7H9 with casitone and DPPC, 1 week) is reported as 0.07 µM (≈ 0.0096 µg/mL) and the MIC ([12]; ATCC27294, 168 h, 7H9 with glucose and BSA, 1 week) is reported as 0.2 µM (≈ 0.0274 µg/mL). For the same molecule, the MIC ([12]; ATCC27294, 168 h, 7H9 with glucose and casitone, 1 week) was 0.1 µM (≈ 0.0137 µg/mL), the MIC ([12]; ATCC27294, 336 h, 7H9 with BSA, DPPC and cholesterol, 2 weeks) was 0.3 µM (≈ 0.0411 µg/mL) and the MIC ([12]; ATCC27294, 336 h, 7H9 with casitone and DPPC, 2 weeks) was 0.1 µM (≈ 0.0137 µg/mL). It also gave an MIC ([12]; ATCC27294, 336 h, 7H9 with glucose and BSA, 2 weeks) of 0.3 µM (≈ 0.0411 µg/mL) and an MIC ([12]; ATCC27294, 336 h, 7H9 with glucose and casitone, 2 weeks) of 0.15 µM (≈ 0.0206 µg/mL).
For CCN(CC)CCCC(C)Nc1ccnc2cc(Cl)ccc12 (stereo not shown) [chloroquine], the “fold less potent in CALU-3 than in VERO cells” value [13] is given as 10 fold.
